Laboratory results reported in US10689354B2, “Aminoazole derivative” (Teijin Pharma Limited, priority 2015, dated 2020).

Biological target: T1, androgen receptor (AR-LBD) (Rattus norvegicus, UniProt P15207)
T1 construct: 5 μL of 2×AR-LBD/Fluoromone AL Red Complex contained in the kit; purchased Invitrogen
T1 sequence (P15207 651-882 limits assumed): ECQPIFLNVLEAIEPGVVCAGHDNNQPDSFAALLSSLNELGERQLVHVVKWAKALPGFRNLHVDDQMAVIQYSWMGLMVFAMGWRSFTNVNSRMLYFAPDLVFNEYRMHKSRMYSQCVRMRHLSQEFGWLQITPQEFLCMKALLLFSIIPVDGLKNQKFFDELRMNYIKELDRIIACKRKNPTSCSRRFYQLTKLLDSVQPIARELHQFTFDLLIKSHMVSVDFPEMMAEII
Assay: Evaluation of androgen receptor affinity (PolarScreen Androgen Receptor Competitor Assay Kit, Red; fluorescence polarization)
Conditions: 22° C. for 5 hours, relative to binding rate of 1 μM DHT, read-out: AR affinity (pEC50) (converted)
Method: Evaluation of an Androgen Receptor Affinity
To examine the interaction of a compound with an androgen receptor, evaluation was carried out in accordance with the following procedure using PolarScreen™ Androgen Receptor Competitor Assay Kit, Red (Invitrogen). To 2 wells each of a 384 well black plate was added 5 μL of the compound solution. To each well was added 5 μL of 2×AR-LBD/Fluoromone AL Red Complex contained in the kit and the samples were reacted at 22° C. for 5 hours. After 5 hours of the reaction, fluorescence polarization was measured and the affinity was evaluated. The affinity of the compound was determined by comparing to the binding rate of 1 μM of dihydrotestosterone (DHT), and quantified the logarithm value (pEC50) of reciprocal value of the effective concentration of the compound which is equal to 50% of the binding rate by applying a 4 parameter goodness-of-fit calculation.

COCCN(c1ccc(C#N)cc1)c1nc(C(=O)NS(C)(=O)=O)c(C)s1 [Compound 357, 2-[4-cyano-N-(2-methoxyethyl)anilino]-5-methyl-N-methylsulfonyl-thiazole-4-carboxamide] was tested, and the EC50 was greater than 2000 nM.

Molecule Cc1sc(N(CCCCO)c2ccc(C#N)cc2)nc1C(=O)NS(C)(=O)=O [Compound 358, 2-[4-cyano-N-(4-hydroxybutyl)anilino]-5-methyl-N-methylsulfonyl-thiazole-4-carboxamide] has an EC50 greater than 2000 nM.

Work on Cc1sc(N(CCCC#N)c2ccc(C#N)cc2)nc1C(=O)NS(C)(=O)=O [Compound 360, 2-[4-cyano-N-(3-cyanopropyl)anilino]-5-methyl-N-methylsulfonyl-thiazole-4-carboxamide] yielded an EC50 greater than 2000 nM.

Work on Cc1sc(N(Cc2ccccc2)c2ccc(C#N)cc2)nc1C(=O)NS(=O)(=O)CCN1C(=O)c2ccccc2C1=O [Compound 373, 2-(N-benzyl-4-cyano-anilino)-N-[2-(1,3-dioxoisoindolin-2-yl)ethylsulfonyl]-5-methyl-thiazole-4-carboxamide] yielded an EC50 greater than 2000 nM.

In the case of Cc1sc(N(Cc2ccccc2)c2ccc(C#N)cc2)nc1C(=O)NS(=O)(=O)c1ccccc1 [Compound 375, N-(benzenesulfonyl)-2-(N-benzyl-4-cyano-anilino)-5-methyl-thiazole-4-carboxamide], the EC50 is reported as greater than 2000 nM.

COCC(CN(c1ccc(C#N)cc1)c1nc(C(=O)NS(C)(=O)=O)c(C)s1)c1ccccc1 (stereo not drawn) [Compound 377, 2-(4-cyano-N-(3-methoxy-2-phenyl-propyl)anilino)-5-methyl-N-methylsulfonyl-thiazole-4-carboxamide] showed an EC50 greater than 2000 nM.

Cc1sc(N(Cc2cscn2)c2ccc(C#N)cc2)nc1C(=O)NS(C)(=O)=O [Compound 380, 2-[4-cyano-N-(thiazol-4-ylmethyl)anilino]-5-methyl-N-methylsulfonyl-thiazole-4-carboxamide] showed an EC50 of 794 nM.

Cc1sc(N(Cc2ccccc2)c2ccc(C#N)cc2)nc1C(=O)NS(=O)(=O)c1cccnc1 [Compound 381, 2-(N-benzyl-4-cyano-anilino)-5-methyl-N-(3-pyridylsulfonyl)thiazole-4-carboxamide] showed an EC50 of 794 nM.

Cc1sc(N(Cc2ccccc2)c2ccc(C#N)cc2)nc1C(=O)NS(=O)(=O)CCN1C(=O)CCC1=O [Compound 383, 2-(N-benzyl-4-cyano-anilino)-N-[2-(2,5-dioxopyrrolidin-1-yl)ethylsulfonyl]-5-methyl-thiazole-4-carboxamide] showed an EC50 greater than 2000 nM.

Work on Cc1sc(N(Cc2ccccc2)c2ccc(C#N)cc2)nc1C(=O)NS(=O)(=O)/C=C/c1ccccc1 [Compound 385, 2-(N-benzyl-4-cyano-anilino)-5-methyl-N-[(E)-styryl]sulfonyl-thiazole-4-carboxamide] yielded an EC50 of 794 nM.

Cc1sc(N(Cc2ccc3nc[nH]c3c2)c2ccc(C#N)cc2)nc1C(=O)NS(C)(=O)=O [Compound 389, 2-[N-(3H-benzimidazol-5-ylmethyl)-4-cyano-anilino]-5-methyl-N-methylsulfonyl-thiazole-4-carboxamide] showed an EC50 of 1580 nM.

Molecule Cc1sc(N(Cc2nccs2)c2ccc(C#N)cc2)nc1C(=O)NS(C)(=O)=O [Compound 392, 2-[4-cyano-N-(thiazol-2-ylmethyl)anilino]-5-methyl-N-methylsulfonyl-thiazole-4-carboxamide] has an EC50 greater than 2000 nM.

For Cc1sc(N(Cc2ccccc2)c2ccc(C#N)cc2)nc1C(=O)NS(=O)(=O)c1cn(C)cn1 [Compound 394, 2-(N-benzyl-4-cyano-anilino)-5-methyl-N-(1-methylimidazol-4-yl)sulfonyl-thiazole-4-carboxamide], the EC50 was greater than 2000 nM.

COCCOc1cccc(N(Cc2ccccc2)c2nc(C(=O)NS(C)(=O)=O)c(C)s2)c1 [Compound 398, 2-[N-benzyl-3-(2-methoxyethoxy)anilino]-5-methyl-N-methylsulfonyl-thiazole-4-carboxamide] was tested, and the EC50 was greater than 2000 nM.

Molecule Cc1sc(N(Cc2cccc3cnccc23)c2ccc(C#N)cc2)nc1C(=O)NS(C)(=O)=O [Compound 402, 2-[4-cyano-N-(5-isoquinolylmethyl)anilino]-5-methyl-N-methylsulfonyl-thiazole-4-carboxamide] has an EC50 of 1000 nM.

For Cc1sc(N(CC2CCCC2O)c2ccc(C#N)cc2)nc1C(=O)NS(C)(=O)=O (stereo not drawn) [Compound 405, 2-[4-cyano-N-[(2-hydroxycyclopentyl)methyl]anilino]-5-methyl-N-methylsulfonyl-thiazole-4-carboxamide], the EC50 was greater than 2000 nM.

Work on Cc1sc(N(Cc2ccccc2)c2ccccn2)nc1C(=O)NS(C)(=O)=O [Compound 408, 2-[benzyl(2-pyridyl)amino]-5-methyl-N-methylsulfonyl-thiazole-4-carboxamide] yielded an EC50 greater than 2000 nM.

Molecule Cc1sc(N(CC(=O)NC2CC2)c2ccc(C#N)cc2)nc1C(=O)NS(C)(=O)=O [Compound 412, 2-(4-cyano-N-[2-(cyclopropylamino)-2-oxo-ethyl]anilino)-5-methyl-N-methylsulfonyl-thiazole-4-carboxamide] has an EC50 greater than 2000 nM.

For Cc1sc(N(Cc2ccc(C(F)(F)F)cc2C(F)(F)F)c2ccc(C#N)cc2)nc1C(=O)NS(C)(=O)=O [Compound 414, 2-[N-[[2,4-bis(trifluoromethyl)phenyl]methyl]-4-cyano-anilino]-5-methyl-N-methylsulfonyl-thiazole-4-carboxamide], the EC50 was 501 nM.

Cc1sc(N(Cc2cc(C(F)(F)F)ccc2C(F)(F)F)c2ccc(C#N)cc2)nc1C(=O)NS(C)(=O)=O [Compound 415, 2-[N-[[2,5-bis(trifluoromethyl)phenyl]methyl]-4-cyano-anilino]-5-methyl-N-methylsulfonyl-thiazole-4-carboxamide] was tested, and the EC50 was greater than 2000 nM.

Cc1sc(N(Cc2ccccc2)c2ccncc2)nc1C(=O)NS(C)(=O)=O [Compound 422, 2-[benzyl(4-pyridyl)amino]-5-methyl-N-methylsulfonyl-thiazole-4-carboxamide] was tested, and the EC50 was 1260 nM.

Cc1sc(N(CC(=O)NC2CCCCC2)c2ccc(C#N)cc2)nc1C(=O)NS(C)(=O)=O [Compound 423, 2-(4-cyano-N-[2-(cyclohexylamino)-2-oxo-ethyl]anilino)-5-methyl-N-methylsulfonyl-thiazole-4-carboxamide] was tested, and the EC50 was greater than 2000 nM.

Cc1sc(N(CC(=O)N(C)C2CCCCC2)c2ccc(C#N)cc2)nc1C(=O)NS(C)(=O)=O [Compound 424, 2-(4-cyano-N-[2-[cyclohexyl(methyl)amino]-2-oxo-ethyl]anilino)-5-methyl-N-methylsulfonyl-thiazole-4-carboxamide] was tested, and the EC50 was greater than 2000 nM.

With Cc1sc(N(CC(=O)Nc2ccccc2)c2ccc(C#N)cc2)nc1C(=O)NS(C)(=O)=O [Compound 425, 2-(N-(2-anilino-2-oxo-ethyl)-4-cyano-anilino)-5-methyl-N-methylsulfonyl-thiazole-4-carboxamide] the EC50 was 1260 nM.

Work on Cc1sc(N(CC(=O)N(C)c2ccccc2)c2ccc(C#N)cc2)nc1C(=O)NS(C)(=O)=O [Compound 426, 2-(4-cyano-N-[2-(N-methylanilino)-2-oxo-ethyl]anilino)-5-methyl-N-methylsulfonyl-thiazole-4-carboxamide] yielded an EC50 greater than 2000 nM.

With Cc1sc(N(CC2CCCC(O)C2)c2ccc(C#N)cc2)nc1C(=O)NS(C)(=O)=O (stereo not drawn) [Compound 427, 2-[4-cyano-N-[(3-hydroxycyclohexyl)methyl]anilino]-5-methyl-N-methylsulfonyl-thiazole-4-carboxamide] the EC50 was greater than 2000 nM.

Cc1sc(N(Cc2ccccc2)c2ccccc2)nc1C(=O)NS(C)(=O)=O [Compound 428, 2-(N-benzylanilino)-5-methyl-N-methylsulfonyl-thiazole-4-carboxamide] gave an EC50 greater than 2000 nM.

Cc1sc(N(Cc2ccccc2)c2ccc(C#N)cc2)nc1C(=O)NS(=O)(=O)CCN1CCOCC1 [Compound 429, 2-(N-benzyl-4-cyano-anilino)-5-methyl-N-(2-morpholinoethylsulfonyl)thiazole-4-carboxamide] showed an EC50 greater than 2000 nM.

For Cc1sc(N(Cc2ccccc2)c2ccc(C#N)cc2)nc1C(=O)NS(=O)(=O)CCN1CCCCC1 [Compound 430, 2-(N-benzyl-4-cyano-anilino)-5-methyl-N-[2-(1-piperidyl)ethylsulfonyl]thiazole-4-carboxamide], the EC50 was greater than 2000 nM.

In the case of Cc1sc(N(CC(=O)C2CCCCC2)c2ccc(C#N)cc2)nc1C(=O)NS(C)(=O)=O [Compound 432, 2-(4-cyano-N-(2-cyclohexyl-2-oxo-ethyl)anilino)-5-methyl-N-methylsulfonyl-thiazole-4-carboxamide], the EC50 is reported as greater than 2000 nM.

Cc1sc(N(CCCc2ccccc2)c2ccc(C#N)cc2)nc1C(=O)NS(C)(=O)=O [Compound 433, 2-[4-cyano-N-(3-phenylpropyl)anilino]-5-methyl-N-methylsulfonyl-thiazole-4-carboxamide] was tested, and the EC50 was greater than 2000 nM.

For Cc1sc(N(CC(=O)c2ccccc2)c2ccc(C#N)cc2)nc1C(=O)NS(C)(=O)=O [Compound 434, 2-(4-cyano-N-phenacyl-anilino)-5-methyl-N-methylsulfonyl-thiazole-4-carboxamide], the EC50 was greater than 2000 nM.

With Cc1ncc(CN(c2ccc(C#N)cc2)c2nc(C(=O)NS(C)(=O)=O)c(C)s2)s1 [Compound 435, 2-[4-cyano-N-[(2-methylthiazol-5-yl)methyl]anilino]-5-methyl-N-methylsulfonyl-thiazole-4-carboxamide] the EC50 was 631 nM.
